Source: patent US20200055848A1, “FURANONE DERIVATES AND METHODS OF USE THEREOF” (CARNA BIOSCIENCES, INC., priority 2016, published 2020)
Several values for one entry are separate records, joined by “and”; a condition that tells them apart may be missing. Equal values may be shown once.

Experiments:
[1] = target: T1, human Cdc7/human ASK complex protein (Homo sapiens, UniProt O00311); experiment: Cdc7/ASK enzymatic assay; format: biochemical; conditions: 5 μM ATP; mean of duplicated assays; read-out: Cdc7 IC50
T1 construct: purchased Carna Biosciences, Inc
T1 sequence (O00311 whole entry): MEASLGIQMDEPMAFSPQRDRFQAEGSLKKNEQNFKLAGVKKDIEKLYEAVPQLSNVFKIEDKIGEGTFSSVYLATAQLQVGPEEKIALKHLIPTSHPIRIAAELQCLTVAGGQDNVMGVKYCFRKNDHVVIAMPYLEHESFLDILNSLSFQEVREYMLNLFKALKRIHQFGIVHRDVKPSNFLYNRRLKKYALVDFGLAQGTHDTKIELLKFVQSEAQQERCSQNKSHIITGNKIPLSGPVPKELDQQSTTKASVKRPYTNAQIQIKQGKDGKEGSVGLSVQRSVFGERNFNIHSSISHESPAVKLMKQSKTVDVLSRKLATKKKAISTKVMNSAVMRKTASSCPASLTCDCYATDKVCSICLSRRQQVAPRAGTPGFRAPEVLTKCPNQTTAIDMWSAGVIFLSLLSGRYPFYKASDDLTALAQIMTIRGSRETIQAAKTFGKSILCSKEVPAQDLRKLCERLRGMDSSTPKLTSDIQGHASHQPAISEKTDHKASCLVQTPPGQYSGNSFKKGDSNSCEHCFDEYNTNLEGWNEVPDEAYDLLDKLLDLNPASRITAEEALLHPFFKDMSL
T1 sequence (Q9UBU7 whole entry partner): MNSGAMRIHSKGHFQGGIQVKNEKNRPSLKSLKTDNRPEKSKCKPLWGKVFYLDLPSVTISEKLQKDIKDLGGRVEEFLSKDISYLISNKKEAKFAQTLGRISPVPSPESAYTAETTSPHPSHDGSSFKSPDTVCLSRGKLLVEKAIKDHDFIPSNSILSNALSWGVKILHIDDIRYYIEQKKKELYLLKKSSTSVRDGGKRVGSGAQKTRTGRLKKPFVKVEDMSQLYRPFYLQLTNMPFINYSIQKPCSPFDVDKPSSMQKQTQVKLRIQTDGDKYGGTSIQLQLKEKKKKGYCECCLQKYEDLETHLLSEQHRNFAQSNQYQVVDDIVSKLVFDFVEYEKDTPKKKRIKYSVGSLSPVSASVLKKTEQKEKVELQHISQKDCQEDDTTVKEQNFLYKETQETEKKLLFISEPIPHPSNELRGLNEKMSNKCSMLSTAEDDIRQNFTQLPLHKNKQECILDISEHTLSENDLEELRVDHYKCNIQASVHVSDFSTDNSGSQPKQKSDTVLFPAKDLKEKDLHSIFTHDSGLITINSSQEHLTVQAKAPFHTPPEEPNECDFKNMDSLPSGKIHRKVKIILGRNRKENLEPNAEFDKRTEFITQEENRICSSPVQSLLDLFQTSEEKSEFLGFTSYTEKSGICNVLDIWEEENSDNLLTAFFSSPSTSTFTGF
Protocol: Measurement of Cdc7 kinase activity was carried out using MSA assay kit (QuickScout™ Screening Assist Kit, Carna Biosciences, Inc.). Assay buffer (20 mM HEPES, 0.01% Triton X-100™, 2 mM dithiothreitol, pH 7.5) was used to prepare a substrate mixture solution comprising 4 μM of kinase-reaction substrate (FITC-labeled MCM2 peptide), 40 mM MgCl2, and 4 times concentrations of final targeted ATP (5, 100, and 1,000 μM). The enzyme supplied in the kit (human Cdc7/human ASK complex protein) was diluted into the assay buffer to prepare a 7 nM solution (enzyme solution). The compound stock solution was prepared by diluting a 10 mM DMSO solution into the assay buffer (final 4% DMSO). The kinase reaction was performed by mixing of 5 μL of the compound solution, 5 μL of the substrate mixture solution, and 10 μL of the enzyme solution in a 384-well plate. For the pre-incubation assay, the compound solution and the enzyme solution were pre-mixed and incubated at ambient temperature for 30 min before adding into the substrate mixture solution to start enzymatic reaction. After the reaction at 25° C. for 5 hours, 60 μL of the termination buffer (supplied in the kit) was added to stop the reaction. The phosphorylation of substrate was measured using a LabChip EZ Reader II system (Caliper Life Sciences). The percent inhibition (%) by a tested compound was calculated according to the following formula:
Percent inhibition (%)=(1−(C−A)/(B−A))×100
A represents P/(P+S) for a blank well, B represents P/(P+S) for a solvent well, and C represents P/(P+S) for a compound-added well. S: the peak heights of the separated substrate, P: phosphorylated substrate.
The IC50 value of tested compound was calculated by regression analysis of the percent inhibition values versus the (logarithmic) concentration of the tested compound.

[2] = In vitro metabolic stability, human liver microsomes; format: in vitro ADME; conditions: for HLM % (remaining % of parent compound): 30 min treatment of human liver microsomes
Protocol: (§1) NADPH regeneration system (13 mM NADP, 33 mM Glucose-6-phospate, 33 mM MgCl2, and 4 U/mL of Glucose-6-phosphate dehydrogenase) and liver microsomes (1 mg/mL of HLM (BD Gentest, lot 18888) or MLM (BD Gentest, lot 31197)) in 0.1 M phosphate buffer (pH 7.4) were pre-incubated separately at 37° C. for 20 min before mixing with 1:4 ratio. 50 μL of the mixed solution was added to 50 μL of the test compound (2 μM) to initiate the reaction at 37° C. (final conc. 1 μM test compound, 0.4 mg/mL liver microsomes, and 1.3 mM NADPH). After 30 min, the reactions were stopped by adding 300 μL of cold acetonitrile. For 0 min samples, ice-cold acetonitrile (with system suitability standard) was treated before mixing the test compound and microsomes. The sample were vortexed well and then centrifuged at 3500 rpm at 15° C. for 20 min. 110 μL of supernatant was mixed with 110 μL of water and quantitated by LC-MS/MS workstation (Shimazu Corp.).

[3] = In vitro metabolic stability, mouse liver microsomes; format: in vitro ADME; conditions: for MLM % (remaining % of parent compound): 30 min treatment of mouse liver microsomes
Protocol: as §1

[4] = Stability of the ethyl ester to hydrolysis; format: physicochemical
Protocol: Because the ester was expected to form important hydrogen bond with Lys90, an SAR study for the ester group was performed (Table 2). […] Generally esters are labile and can be easily hydrolyzed to the corresponding carboxylic acid. To our surprise, the ethyl ester of 3 was very stable even under strong basic conditions, and it required an extremely strong basic condition (50% w/v KOH aq., reflux) to hydrolyze this ester.
The general procedure for the replacement of R^2 by various groups is shown in Scheme 2. Methyl ester 8 was obtained analogously to ethyl ester 3 from the furanone intermediate 39 which was prepared from methyl 4-chloroacetoacetate 37 and phenyl isocyanate 38 (Scheme 2A). Compound 9 (Scheme 2B) was obtained by hydrolysis of compound 3 under extremely strong basic condition (50% w/v KOH aq., reflux). […] The amide analogs (10-12) were prepared directly by aminolysis of ethyl ester 3 with appropriate amines (Scheme 2C).

[5] = target: T1, human Cdc7/human ASK complex protein; experiment: Cdc7/ASK enzymatic assay; format: biochemical; conditions: 5 μM ATP versus 10 μM ATP as printed

| IC50 [1] | HLM % (remaining % of parent compound) [2] | metabolic stability in human liver microsome (in words) ([2]; human) | MLM % (remaining % of parent compound) [3] | metabolic stability in mice (in words) ([3]; mouse) | stability of the ethyl ester ([4]; conventional ester hydrolysis conditions: 2N HCl aq./EtOH, 60° C. or 2N NaOH aq./EtOH, 60° C.) | stability of the ethyl ester ([4]; strong basic conditions, hydrolysis required 50% w/v KOH aq., reflux) | fold stronger inhibitory potency at 5 μM ATP than inhibition at 10 μM ATP concentration [5] | SMILES |
| --- | --- | --- | --- | --- | --- | --- | --- | --- |
| 3.3 nM and 3.8 nM | 23% | moderate metabolic stability | 7.9% | rapidly metabolized | very stable | very stable | 21 fold | CCOC(=O)C1=C(Nc2ccccc2)OC(=Cc2c[nH]c3ncccc23)C1=O [Compound 3, Ethyl 5-((1H-pyrrolo[2,3-b]pyridin-3-yl)methylene)-4-oxo-2-(phenylamino)-4,5-dihydrofuran-3-carboxylate] |
| 2.4 nM | 30% |  | 10% |  |  |  |  | CCOC(=O)C1=C(Nc2ccccc2F)OC(=Cc2c[nH]c3ncccc23)C1=O [Compound 19, Ethyl 5-[(1H-pyrrolo[2,3-b]pyridin-3-yl)methylene]-2-[(2-fluorophenyl)amino]-4-oxo-4,5-dihydrofuran-3-carboxylate] |
| 3.9 nM | 63% |  | 30% |  |  |  |  | CCOC(=O)C1=C(Nc2ccc(C)cc2C)OC(=Cc2c[nH]c3ncccc23)C1=O [Compound 24, Ethyl 5-((1H-pyrrolo[2,3-b]pyridin-3-yl)methylene)-2-((2,4-dimethylphenyl)amino)-4-oxo-4,5-dihydrofuran-3-carboxylate] |
